The record followed here is patent US20250145594A1, “MODULATORS OF THE INTEGRATED STRESS PATHWAY” (Calico Life Sciences LLC, priority 2020, published 2025).

The assay has as its system ATF4 luciferase reporter in HEK293T cells. Description: ATF4-Luc assay (in vitro model of VWMD). Particulars: Homo sapiens, HEK-293T, 7 h, HEK293T cells carrying the ATF4 luciferase reporter, 1 μg/mL tunicamycin, One Glo luminescence. Format: cell-based, human. Put shortly:
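Tunicamycin (1 μg/mL) stress with co-added compound for 7 hours in HEK293T cells stably carrying an ATF4 5′-UTR–luciferase reporter. EC50 values come from the luminescent signal (One Glo).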

The term EC50 denotes the concentration needed to bring the measured effect to its halfway point. For the compound `O=C(NC12CC(n3cc(N4CC[C@H](COC(F)(F)F)C4)cn3)(C1)C2)[C@H]1C[C@@H](O)c2cc(Cl)ccc2O1` [Compound 373, (2R,4R)-6-chloro-4-hydroxy-N-[3-(4-{(3S)-3-[(trifluoromethoxy)methyl]pyrrolidin-1-yl}-1H-pyrazol-1-yl)bicyclo[1.1.1]pentan-1-yl]-3,4-dihydro-2H-1-benzopyran-2-carboxamide], the EC50 was 50 to 250 nM. To `O=C(NC12CC(c3ccnc(-n4cc(C(F)(F)F)cn4)c3)(C1)C2)[C@H]1C[C@@H](O)c2cc(Cl)c(F)cc2O1` [Compound 561, (2R,4R)-6-chloro-7-fluoro-4-hydroxy-N-(3-{2-[4-(trifluoromethyl)-1H-pyrazol-1-yl]pyridin-4-yl}bicyclo[1.1.1]pentan-1-yl)-3,4-dihydro-2H-1-benzopyran-2-carboxamide] belongs less than 10 nM; to `O=C(NC12CC(n3cc(-c4ccc(OC(F)F)cn4)cn3)(C1)C2)[C@H]1C[C@@H](O)c2cc(Cl)ccc2O1` [Compound 575, (2R,4R)-6-chloro-N-(3-{4-[5-(difluoromethoxy)pyridin-2-yl]-1H-pyrazol-1-yl}bicyclo[1.1.1]pentan-1-yl)-4-hydroxy-3,4-dihydro-2H-1-benzopyran-2-carboxamide], less than 10 nM. To `O=C(NC12CC(n3cc(-c4cnn(CC(F)(F)F)c4)cn3)(C1)C2)[C@H]1C[C@@H](O)c2cc(Cl)ccc2O1` [Compound 563, (2R,4R)-6-chloro-4-hydroxy-N-{3-[1′-(2,2,2-trifluoroethyl)-1H,1′H-[4,4′-bipyrazol]-1-yl]bicyclo[1.1.1]pentan-1-yl}-3,4-dihydro-2H-1-benzopyran-2-carboxamide] belongs less than 10 nM. Regarding `O=C(NC12CC(n3cc(C(=O)N4CCC(OC(F)(F)F)CC4)cn3)(C1)C2)[C@H]1C[C@@H](O)c2cc(Cl)ccc2O1` [Compound 366, (2R,4R)-6-chloro-4-hydroxy-N-(3-{4-[4-(trifluoromethoxy)piperidine-1-carbonyl]-1H-pyrazol-1-yl}bicyclo[1.1.1]pentan-1-yl)-3,4-dihydro-2H-1-benzopyran-2-carboxamide], the EC50 is 50 to 250 nM. Regarding `O=C(NC12CCC(n3cc(C(=O)N4CC[C@H](OC(F)(F)F)C4)cn3)(CC1)CC2)[C@H]1C[C@@H](O)c2cc(Cl)ccc2O1` [Compound 331, (2R,4R)-6-chloro-4-hydroxy-N-(4-{4-[(3S)-3-(trifluoromethoxy)pyrrolidine-1-carbonyl]-1H-pyrazol-1-yl}bicyclo[2.2.2]octan-1-yl)-3,4-dihydro-2H-1-benzopyran-2-carboxamide], the EC50 is less than 10 nM. For `O=C(CO[C@H]1C[C@@H](OC(F)(F)F)C1)NC12CC(NC(=O)[C@@H]3C[C@@H](O)c4cc(Cl)c(F)cc4O3)(C1)C2` [Compound 491, (2S,4R)-6-chloro-7-fluoro-4-hydroxy-N-[3-(2-{[(1s,3R)-3-(trifluoromethoxy)cyclobutyl]oxy}acetamido)bicyclo[1.1.1]pentan-1-yl]-3,4-dihydro-2H-1-benzopyran-2-carboxamide], the EC50 was less than 10 nM.

As to `O=C(NC12CC(c3cnn([C@H]4C[C@@H](OC(F)(F)F)C4)c3)(C1)C2)[C@H]1C[C@@H](O)c2cc(Cl)ccc2O1` [Compound 316, (2R,4R)-6-chloro-4-hydroxy-N-(3-{1-[cis-3-(trifluoromethoxy)cyclobutyl]-1H-pyrazol-4-yl}bicyclo[1.1.1]pentan-1-yl)-3,4-dihydro-2H-1-benzopyran-2-carboxamide], the EC50 was less than 10 nM. As to `O=C(NC12CC(n3cc(-c4ccc(OC(F)(F)F)cn4)cn3)(C1)C2)[C@H]1C[C@@H](O)c2cc(Cl)c(F)cc2O1` [Compound 361, (2R,4R)-6-chloro-7-fluoro-4-hydroxy-N-(3-{4-[5-(trifluoromethoxy)pyridin-2-yl]-1H-pyrazol-1-yl}bicyclo[1.1.1]pentan-1-yl)-3,4-dihydro-2H-1-benzopyran-2-carboxamide], the EC50 is less than 10 nM.

Turning to `O=C(NC12CC(n3cc(-c4ccc(OC(F)(F)F)cn4)cn3)(C1)C2)[C@H]1C[C@@H](O)c2cc(Cl)c(Cl)cc2O1` [Compound 566, (2R,4R)-6,7-dichloro-4-hydroxy-N-(3-{4-[5-(trifluoromethoxy)pyridin-2-yl]-1H-pyrazol-1-yl}bicyclo[1.1.1]pentan-1-yl)-3,4-dihydro-2H-1-benzopyran-2-carboxamide], the EC50 was less than 10 nM. To `O=C(NC12CC(n3cc(-c4ccc(C(F)(F)F)cn4)cn3)(C1)C2)[C@@H]1C[C@@H](O)c2cc(Cl)c(F)cc2O1` [Compound 477, (2S,4R)-6-chloro-7-fluoro-4-hydroxy-N-(3-{4-[5-(trifluoromethyl)pyridin-2-yl]-1H-pyrazol-1-yl}bicyclo[1.1.1]pentan-1-yl)-3,4-dihydro-2H-1-benzopyran-2-carboxamide] belongs less than 10 nM; to `O=C(COc1ccc(Cl)c(F)c1)NC12CC(n3cc([C@H]4[C@@H]5CN(CC(F)(F)F)C[C@@H]54)cn3)(C1)C2` [Compound 625, 2-(4-chloro-3-fluorophenoxy)-N-(3-{4-[(1R,5S,6s)-3-(2,2,2-trifluoroethyl)-3-azabicyclo[3.1.0]hexan-6-yl]-1H-pyrazol-1-yl}bicyclo[1.1.1]pentan-1-yl)acetamide], less than 10 nM. Then `O=C(NC12CC(n3cc(-c4ccc(OC(F)(F)F)cn4)cn3)(C1)C2)[C@@H]1C[C@H](O)c2cc(C(F)(F)F)ccc2O1` [Compound 338, (2S,4S)-4-hydroxy-N-(3-{4-[5-(trifluoromethoxy)pyridin-2-yl]-1H-pyrazol-1-yl}bicyclo[1.1.1]pentan-1-yl)-6-(trifluoromethyl)-3,4-dihydro-2H-1-benzopyran-2-carboxamide], with less than 10 nM; and `O=C(COc1ccc(Cl)c(F)c1)NC12CC(n3cc(OCCOC(F)(F)F)cn3)(C1)C2` [Compound 451, 2-(4-chloro-3-fluorophenoxy)-N-(3-{4-[2-(trifluoromethoxy)ethoxy]-1H-pyrazol-1-yl}bicyclo[1.1.1]pentan-1-yl)acetamide], with less than 10 nM; and `COc1ccc2nn(C34CC(NC(=O)[C@H]5C[C@@H](O)c6cc(Cl)ccc6O5)(C3)C4)cc2n1` [Compound 462, (2R,4R)-6-chloro-4-hydroxy-N-[3-(5-methoxy-2H-pyrazolo[4,3-b]pyridin-2-yl)bicyclo[1.1.1]pentan-1-yl]-3,4-dihydro-2H-1-benzopyran-2-carboxamide], with less than 10 nM. To `O=C(NC12CC(n3cc(C4CC(COC(F)(F)F)C4)nn3)(C1)C2)[C@H]1C[C@@H](O)c2cc(Cl)ccc2O1` (stereo partly drawn) [Compound 541, (2R,4R)-6-chloro-4-hydroxy-N-[3-(4-{3-[(trifluoromethoxy)methyl]cyclobutyl}-1H-1,2,3-triazol-1-yl)bicyclo[1.1.1]pentan-1-yl]-3,4-dihydro-2H-1-benzopyran-2-carboxamide] belongs less than 10 nM; to `O=C(NC12CC(n3cc(-c4ccc(OC(F)F)cn4)cn3)(C1)C2)[C@H]1C[C@@H](O)c2cc(Cl)c(F)cc2O1` [Compound 576, (2R,4R)-6-chloro-N-(3-{4-[5-(difluoromethoxy)pyridin-2-yl]-1H-pyrazol-1-yl}bicyclo[1.1.1]pentan-1-yl)-7-fluoro-4-hydroxy-3,4-dihydro-2H-1-benzopyran-2-carboxamide], less than 10 nM.
